Results on four compounds are retold here after paper PMC5355235, “FLT3 activating mutations display differential sensitivity to multiple tyrosine kinase inhibitors” (Oncotarget, 2017).

The subject of one assay is BaF3/ITD cells. The experiment in a line: MTT growth inhibition assay, BaF3 FLT3-ITD cells. The format is cell-based. The conditions noted are these: Mus musculus, no IL-3, 48 h, read-out: Proliferation IC50. As to the method:
(§1) Figure 1 Growth of AL mutants in the presence of FLT3 TKI The BaF3 AL mutants were grown in the absence of IL-3 and analyzed by treatment in increasing concentrations of FLT3 TKI for 48 hours, after which growth inhibition was assessed using the MTT assay. Means are representative of at least three independent experiments.
(§2) The cells were grown in the absence of IL3 and analyzed by treatment in increasing concentrations of FLT3 TKI for 48 hours, after which growth inhibition was assessed using the MTT assay. Each experiment was performed at least three times and representative results are shown.
(§3) Based on Trypan Blue exclusion, 2 × 10^4 viable cells were seeded in quadruplicate in a 96-well microtiter plate in the presence or absence of inhibitor for 48 h. The effect of drug activity on cell viability was measured using the 3-(4,5-Dimethylthiazol-2-yl)-2,5-diphenyltetrazolium bromide (MTT) assay according to the manufacturer's instructions (Roche Applied Science, Indianapolis, IN, USA). Following treatment, cells were incubated for 4 h in MTT followed by dissolution in solubilization buffer overnight. Absorbance was measured at 570 nm on a Bio-Rad plate reader (Hercules, CA, USA). […] Results shown are presented as means and are representative of at least three independent experiments.

Assay [1] relates to BaF3 FLT3 D835Y mutant cells. The experiment in a line: MTT growth inhibition assay, BaF3 FLT3 D835Y cells. The assay is classed as cell-based. The settings on record: Mus musculus, no IL-3, 48 h, read-out: Proliferation IC50. As to the method:
as §1, §2, §3
(In general: Formazan colour is commonly taken as a measure of viable cells.)

Assay [2] concerns BaF3 FLT3 D835A mutant cells. The experiment in a line: MTT growth inhibition assay, BaF3 FLT3 D835A cells. The assay is classed as cell-based. The settings on record: Mus musculus, read-out: Proliferation IC50. As to the method:
as §1, §2, §3

In assay [3] the test system is BaF3 FLT3 D835G mutant cells. The experiment in a line: MTT growth inhibition assay, BaF3 FLT3 D835G cells. The assay is classed as cell-based. The settings on record: Mus musculus, no IL-3, 48 h, read-out: Proliferation IC50. How it is done:
as §1, §2, §3

Assay [4] deals with BaF3 FLT3 D835N mutant cells. Kind of assay: MTT growth inhibition assay, BaF3 FLT3 D835N cells. The format is cell-based. The settings on record: Mus musculus, no IL-3, 48 h, read-out: Proliferation IC50. How it is done: as §1, §2, §3
In assay [5] the test system is BaF3 FLT3 D835L+K mutant cells. Kind of assay: MTT growth inhibition assay, BaF3 FLT3 D835L+K cells. The assay is classed as cell-based. The conditions noted are these: Mus musculus, no IL-3, 48 h, read-out: Proliferation IC50. As to the method:
as §1, §2, §3

Assay [6] concerns BaF3 FLT3 I836L+D mutant cells. The experiment in a line: MTT growth inhibition assay, BaF3 FLT3 I836L+D cells. The assay is classed as cell-based. The settings on record: Mus musculus, no IL-3, 48 h, read-out: Proliferation IC50. How it is done: as §1, §2, §3
Assay [7] concerns BaF3 FLT3 I836S mutant cells. Kind of assay: MTT growth inhibition assay, BaF3 FLT3 I836S cells. The assay is classed as cell-based. The settings on record: Mus musculus, read-out: Proliferation IC50. As to the method: as §1, §2, §3
For assay [8], the system named is BaF3 FLT3 I836T mutant cells. The experiment in a line: MTT growth inhibition assay, BaF3 FLT3 I836T cells. The format is cell-based. The settings on record: Mus musculus, no IL-3, 48 h, read-out: Proliferation IC50. As to the method:
as §1, §2, §3

Assay [9] deals with BaF3 FLT3 840G+S mutant cells. The experiment in a line: MTT growth inhibition assay, BaF3 FLT3 840G+S cells. The assay is classed as cell-based. The conditions noted are these: Mus musculus, no IL-3, 48 h, read-out: Proliferation IC50. How it is done:
as §1, §2, §3

Assay [10] concerns BaF3 FLT3 D593D mutant cells. Kind of assay: MTT growth inhibition assay, BaF3 FLT3 D593D cells. The settings on record: Mus musculus, no IL-3, 48 h, read-out: Proliferation IC50. The assay is classed as cell-based. As to the method:
as §1, §2, §3

The test system of a further assay is all FLT3 AL mutants. The settings on record: read-out: FLT3 autophosphorylation IC50, BaF3 cells, 1 h treatment, Western blot. How it is done: Activated FLT3 expression was measured by performing immunoprecipitation, SDS-PAGE and Western blotting as previously described. Specifically, 10^7 cells were washed in medium and treated with inhibitor for 1 h followed by stimulation with 25 ng/ml of FLT3 ligand for 15 minutes where indicated. Cells were washed twice with ice-cold PBS and lysed in 300 µl of NP-40 lysis buffer (150 mM NaCl, 20 mM TrisHCl (pH7.4), 10% glycerol, 1% NP-40, 10 mM EDTA, 100 mM NaF) with 2 mM Na3VO4 and protease inhibitors (Complete Tablets, Roche, Mannheim, Germany) at 4°C for 30 m. Cell lysate was harvested by centrifugation at 13,000 × g for 30 m at 4°C. FLT3 S-18 antibody was incubated with 500 µg lysate overnight at 4°C followed by immunoprecipitation with protein A-agarose beads for 2 h. Beads were washed once in Tris buffered saline with 1% Tween-20 (TBST) and twice in TBS. Samples were boiled in sodium dodecyl sulfate (SDS) sample buffer prior to separating in a 8% SDS-polyacrylamide gel (SDS-PAGE). Proteins were transferred to a polyvinyl diflouride (PVDF) membrane (Millipore, Bedford, MA, USA) and detected by 4G10 phosphotyrosine antibody and anti-FLT3 S-18 antibody. FLT3 was visualized using the Odyssey Infra Red Imaging System from Li-Cor (Lincoln, NE, USA) using AlexaFluor 680 goat anti-mouse and AlexaFluor 800 goat anti-rabbit antibodies. […]
A general note: A western blot detects proteins with antibodies after separation by electrophoresis.

For the next assay, the system named is FLT3/ITD. Kind of assay: FLT3/ITD autophosphorylation and signaling pathways, Western blot. The assay is classed as cell-based. The settings on record: FLT3/ITD cells, 1 h, concentration-dependent. How it is done: Activated FLT3 expression was measured by performing immunoprecipitation, SDS-PAGE and Western blotting as previously described. Specifically, 10^7 cells were washed in medium and treated with inhibitor for 1 h followed by stimulation with 25 ng/ml of FLT3 ligand for 15 minutes where indicated. Cells were washed twice with ice-cold PBS and lysed in 300 µl of NP-40 lysis buffer (150 mM NaCl, 20 mM TrisHCl (pH7.4), 10% glycerol, 1% NP-40, 10 mM EDTA, 100 mM NaF) with 2 mM Na3VO4 and protease inhibitors (Complete Tablets, Roche, Mannheim, Germany) at 4°C for 30 m. Cell lysate was harvested by centrifugation at 13,000 × g for 30 m at 4°C. FLT3 S-18 antibody was incubated with 500 µg lysate overnight at 4°C followed by immunoprecipitation with protein A-agarose beads for 2 h. Beads were washed once in Tris buffered saline with 1% Tween-20 (TBST) and twice in TBS. Samples were boiled in sodium dodecyl sulfate (SDS) sample buffer prior to separating in a 8% SDS-polyacrylamide gel (SDS-PAGE). Proteins were transferred to a polyvinyl diflouride (PVDF) membrane (Millipore, Bedford, MA, USA) and detected by 4G10 phosphotyrosine antibody and anti-FLT3 S-18 antibody. FLT3 was visualized using the Odyssey Infra Red Imaging System from Li-Cor (Lincoln, NE, USA) using AlexaFluor 680 goat anti-mouse and AlexaFluor 800 goat anti-rabbit antibodies. Phosphorylation of the FLT3 downstream signaling mediators, STAT5, AKT and MAP kinase was investigated by loading 50 µg of whole cell lysate and probing with the indicated antibodies. The membrane was washed and incubated in goat anti-rabbit secondary antibody conjugated to horseradish peroxidase followed by enhanced chemiluminescence (ECL). The membrane was subsequently stripped in 200 mM glycine buffer, pH 2.5 with 0.1% Tween-20 and reprobed for STAT5, AKT and MAP kinase expression using the respective antibodies.

For a further assay, the system named is BaF3 FLT3 D835Y cells. Kind of assay: Engraftment of BaF3 D835Y luciferase cells in BALB/c mice, bioluminescence imaging. The assay is classed as in vivo. The conditions noted are these: 20 mg/kg twice daily subcutaneous, day 5 to day 9. As to the method:
On day 5 following transplantation, the level of engraftment was assessed by imaging mice for bioluminescence on an IVIS Spectrum imager. […] This experiment was repeated three times.
Cells were sorted for GFP and CD135 expression on a FACS AriaII cytometer using FACSDiva software. For engraftment, 2 ×10^6 cells were injected via tail vein into BALB/c mice (Jackson Laboratories, Bar Harbor, ME, USA) (day 0). […] [36, 37] […] Mice were imaged by intraperitoneal injection of luciferin (3 mg) and visualizing on an IVIS Spectrum imager (Caliper LifeSciences, Hopkinton, MA, USA) using Living Image software for analysis on day 5 following inoculation to monitor engraftment and on day 9 to assess drug effect. All animal procedures were conducted in accordance with the policy of the Johns Hopkins University School of Medicine Animal Care and Use Committee.

Setting [11] is: BaF3 FLT3 D835A, no IL-3, 48 h, MTT.
The mark [12] stands for this setting: BaF3 FLT3 I836S, no IL-3, 48 h, MTT.

Read-outs that look alike come from different tables or passages of the source. Bounds are passed on as bounds.

On to `O=C(c1ccc(/C=C/c2n[nH]c3ccccc23)cc1)N1CCNCC1` [KW2449], for which the IC50 was 41 nM in the assay with BaF3/ITD cells; over 200 nM in assay [1]; 62 nM in assay [2] (setting [11]); 56 nM in assay [3]; 58.3 nM in assay [4]; over 200 nM in assay [5]. Besides, the IC50 is over 200 nM in [6]; over 200 nM in assay [7] (setting [12]); 31.9 nM in [8]; 35 nM in assay [9]; over 200 nM in assay [10].

As to `C[C@]12O[C@H](C[C@]1(O)CO)n1c3ccccc3c3c4c(c5c6ccccc6n2c5c31)CNC4=O` [Lestaurtinib], the IC50 in the assay with BaF3/ITD cells is 8.6 nM; in assay [1] it was 9.8 nM; in [2] (BaF3, 48 h) it was 5 nM; in assay [3], 6 nM; in [4], 7.6 nM; in assay [5], 2.1 nM. Further, the IC50 was 2.1 nM in assay [6]; 15 nM in assay [7] (BaF3, 48 h); 13.4 nM in assay [8]; 8 nM in assay [9]; 8 nM in assay [10]; at most 5 nM with all FLT3 AL mutants. For the same compound, the “Inhibition of FLT3 autophosphorylation and phosphorylation of STAT5, AKT and Map kinase” value in the assay with FLT3/ITD was “inhibited FLT3 autophosphorylation”. Further, the “Leukemic burden (bioluminescence) on day 9” value with BaF3 FLT3 D835Y cells was “greatly reduced”.

As to `Cc1ccc(F)c(NC(=O)Nc2ccc(-c3cccc4[nH]nc(N)c34)cc2)c1` [Linifanib], the IC50 in the assay with BaF3/ITD cells was 2.4 nM; in assay [1], over 100 nM; in [2] (setting [11]), over 200 nM; in assay [3], 8.6 nM; in assay [4], 10.3 nM; in assay [5], over 200 nM. In addition, the IC50 was over 200 nM in assay [6]; over 200 nM in [7] (setting [12]); 5.3 nM in [8]; 2.1 nM in assay [9]; over 200 nM in assay [10].

In the case of `CO[C@@H]1[C@H](N(C)C(=O)c2ccccc2)C[C@H]2O[C@]1(C)n1c3ccccc3c3c4c(c5c6ccccc6n2c5c31)C(=O)NC4` [Midostaurin], in [9], the IC50 stood at 12 nM.
